# According to patent publication US20170190705A1, “Compositions and Methods for Inhibiting BMP” (THE BRIGHAM AND WOMAN'S HOSPITAL, INC., priority 2014, published 2017):
# Like-named read-outs stand apart in the source and are kept apart here.
# What was measured:
# Format in all cases: biochemical
# FYN = FYN (Homo sapiens, UniProt P06241); assay: Kinome profiling FYN; conditions: read-out: Inhibitory activity FYN; for inhibition at 0.1 µM: 100 nM
# Description: (§1) . The kinome-wide selectivity was determined following the methods previously reported by Mohedas et al., ACS Chem Biol 2013, 8, 1291-1302 and Sanvitale et al., PLoS One 2013, 8, e62721.
# PKC-1 = molecular target: T1, PKC-1 (Homo sapiens, UniProt P41743); assay: Kinome profiling PKC-1; conditions: read-out: Inhibitory activity PKC-1; for inhibition at 0.1 µM: 100 nM
# T1 sequence (P41743 2-596 limits assumed): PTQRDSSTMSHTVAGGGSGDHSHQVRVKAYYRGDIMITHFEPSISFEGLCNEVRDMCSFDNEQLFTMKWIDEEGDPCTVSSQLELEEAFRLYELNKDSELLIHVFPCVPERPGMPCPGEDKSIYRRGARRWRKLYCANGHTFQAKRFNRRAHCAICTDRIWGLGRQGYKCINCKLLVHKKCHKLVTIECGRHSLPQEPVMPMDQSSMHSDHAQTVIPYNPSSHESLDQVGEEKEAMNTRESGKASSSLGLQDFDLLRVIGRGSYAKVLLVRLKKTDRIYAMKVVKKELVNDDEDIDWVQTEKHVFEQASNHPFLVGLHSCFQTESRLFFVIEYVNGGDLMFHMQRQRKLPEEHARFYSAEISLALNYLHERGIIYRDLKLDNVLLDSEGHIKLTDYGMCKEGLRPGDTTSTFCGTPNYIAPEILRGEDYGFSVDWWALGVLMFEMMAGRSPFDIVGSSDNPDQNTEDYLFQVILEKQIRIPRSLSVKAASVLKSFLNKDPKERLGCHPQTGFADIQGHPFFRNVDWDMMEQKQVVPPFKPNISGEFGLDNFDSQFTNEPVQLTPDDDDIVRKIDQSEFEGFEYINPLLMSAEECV
# Description: as §1
# PRKD2 = molecular target: T2, PRKD2 (Homo sapiens, UniProt Q9BZL6); assay: Kinome profiling PRKD2; conditions: for inhibition at 0.1 µM: 100 nM
# T2 sequence (Q9BZL6 1-878): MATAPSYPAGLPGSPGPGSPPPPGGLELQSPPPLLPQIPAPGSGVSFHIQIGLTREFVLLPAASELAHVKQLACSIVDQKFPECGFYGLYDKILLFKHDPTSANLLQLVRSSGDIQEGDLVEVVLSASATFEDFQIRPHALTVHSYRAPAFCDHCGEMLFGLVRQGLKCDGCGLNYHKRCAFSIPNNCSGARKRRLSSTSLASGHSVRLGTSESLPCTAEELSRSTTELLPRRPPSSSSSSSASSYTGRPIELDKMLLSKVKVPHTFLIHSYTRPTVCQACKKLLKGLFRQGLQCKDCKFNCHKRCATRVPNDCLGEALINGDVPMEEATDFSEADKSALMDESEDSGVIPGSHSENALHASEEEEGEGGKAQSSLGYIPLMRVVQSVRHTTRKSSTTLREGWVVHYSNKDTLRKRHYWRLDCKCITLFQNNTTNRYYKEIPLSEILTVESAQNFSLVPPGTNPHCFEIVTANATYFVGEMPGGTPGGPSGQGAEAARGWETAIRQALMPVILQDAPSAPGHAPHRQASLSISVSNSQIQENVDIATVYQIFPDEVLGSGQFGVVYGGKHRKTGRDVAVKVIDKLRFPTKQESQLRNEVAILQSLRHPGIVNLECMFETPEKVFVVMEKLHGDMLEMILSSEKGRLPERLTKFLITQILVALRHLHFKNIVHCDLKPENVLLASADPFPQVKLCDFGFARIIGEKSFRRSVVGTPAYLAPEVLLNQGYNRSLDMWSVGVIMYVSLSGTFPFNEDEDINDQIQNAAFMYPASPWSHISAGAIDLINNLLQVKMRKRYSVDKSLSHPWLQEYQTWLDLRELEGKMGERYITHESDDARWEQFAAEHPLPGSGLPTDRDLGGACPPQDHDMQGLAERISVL
# Description: as §1
# HIPK1 = HIPK1 (Homo sapiens, UniProt Q86Z02); assay: Kinome profiling HIPK1; conditions: read-out: Inhibitory activity HIPK1; for inhibition at 0.1 µM: 100 nM
# Description: as §1
# YES = YES (Homo sapiens, UniProt P07947); assay: Kinome profiling YES; conditions: read-out: Inhibitory activity YES; for inhibition at 0.1 µM: 100 nM
# Description: as §1
# DAPK1 = DAPK1 (Homo sapiens, UniProt P53355); assay: Kinome profiling DAPK1; conditions: read-out: Inhibitory activity DAPK1; for inhibition at 0.1 µM: 100 nM
# Description: as §1
# TRKB = TRKB (Homo sapiens, UniProt Q16620); assay: Kinome profiling TRKB; conditions: read-out: Inhibitory activity TRKB; for inhibition at 0.1 µM: 100 nM
# Description: as §1
# PTK5 = PTK5 (Homo sapiens, UniProt P42685); assay: Kinome profiling PTK5; conditions: read-out: Inhibitory activity PTK5; for inhibition at 0.1 µM: 100 nM
# Description: as §1
# [1] = Table 4, read-out: Inhibitory Activity PRKD2
# [2] = read-out: Inhibitory activity PRKD2
# Sequence of HIPK1 (Q86Z02 whole entry): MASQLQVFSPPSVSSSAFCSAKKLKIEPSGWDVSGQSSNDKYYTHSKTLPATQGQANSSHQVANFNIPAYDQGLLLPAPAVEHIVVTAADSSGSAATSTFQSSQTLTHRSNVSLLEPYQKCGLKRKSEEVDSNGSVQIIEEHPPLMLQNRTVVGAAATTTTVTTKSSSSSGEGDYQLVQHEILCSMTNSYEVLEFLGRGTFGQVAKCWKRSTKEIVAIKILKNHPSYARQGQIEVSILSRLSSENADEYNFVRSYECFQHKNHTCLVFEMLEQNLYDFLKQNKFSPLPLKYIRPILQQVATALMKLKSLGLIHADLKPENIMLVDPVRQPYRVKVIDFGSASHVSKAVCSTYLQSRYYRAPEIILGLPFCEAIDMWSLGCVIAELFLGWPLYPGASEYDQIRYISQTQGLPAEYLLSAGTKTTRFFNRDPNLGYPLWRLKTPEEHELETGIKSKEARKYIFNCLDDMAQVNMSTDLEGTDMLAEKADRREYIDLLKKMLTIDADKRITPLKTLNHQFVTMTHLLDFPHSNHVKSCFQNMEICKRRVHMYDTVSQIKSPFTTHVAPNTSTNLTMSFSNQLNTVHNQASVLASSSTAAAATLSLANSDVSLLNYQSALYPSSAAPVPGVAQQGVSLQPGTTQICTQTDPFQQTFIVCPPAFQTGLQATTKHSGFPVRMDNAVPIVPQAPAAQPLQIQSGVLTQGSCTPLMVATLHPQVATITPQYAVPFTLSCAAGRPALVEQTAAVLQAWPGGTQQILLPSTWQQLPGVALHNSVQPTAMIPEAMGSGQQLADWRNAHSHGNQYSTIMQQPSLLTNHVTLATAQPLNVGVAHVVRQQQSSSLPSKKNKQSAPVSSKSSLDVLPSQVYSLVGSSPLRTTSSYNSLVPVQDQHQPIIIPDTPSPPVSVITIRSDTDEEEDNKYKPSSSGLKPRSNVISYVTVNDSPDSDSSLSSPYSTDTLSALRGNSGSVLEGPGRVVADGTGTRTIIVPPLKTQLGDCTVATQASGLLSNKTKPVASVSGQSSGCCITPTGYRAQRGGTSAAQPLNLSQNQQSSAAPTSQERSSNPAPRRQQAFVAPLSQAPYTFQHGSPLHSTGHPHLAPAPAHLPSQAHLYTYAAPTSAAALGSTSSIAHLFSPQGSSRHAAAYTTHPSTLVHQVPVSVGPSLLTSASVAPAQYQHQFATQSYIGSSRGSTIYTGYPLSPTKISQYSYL
# Sequence of YES (P07947 whole entry): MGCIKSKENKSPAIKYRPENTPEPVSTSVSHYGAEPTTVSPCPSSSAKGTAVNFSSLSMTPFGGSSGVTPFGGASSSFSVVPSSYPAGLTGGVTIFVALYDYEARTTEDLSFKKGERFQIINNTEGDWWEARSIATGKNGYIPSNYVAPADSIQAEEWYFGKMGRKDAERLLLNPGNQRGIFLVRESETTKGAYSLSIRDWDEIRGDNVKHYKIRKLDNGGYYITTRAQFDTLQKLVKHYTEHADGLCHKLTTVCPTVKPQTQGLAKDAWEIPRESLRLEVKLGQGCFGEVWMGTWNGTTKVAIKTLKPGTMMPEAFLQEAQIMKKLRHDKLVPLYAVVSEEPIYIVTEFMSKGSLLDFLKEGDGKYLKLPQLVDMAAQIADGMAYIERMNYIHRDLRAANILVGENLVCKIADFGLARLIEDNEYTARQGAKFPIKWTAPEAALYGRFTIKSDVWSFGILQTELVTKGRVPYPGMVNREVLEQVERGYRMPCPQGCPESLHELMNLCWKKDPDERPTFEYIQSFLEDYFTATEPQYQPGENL
# Sequence of TRKB (Q16620 32-822): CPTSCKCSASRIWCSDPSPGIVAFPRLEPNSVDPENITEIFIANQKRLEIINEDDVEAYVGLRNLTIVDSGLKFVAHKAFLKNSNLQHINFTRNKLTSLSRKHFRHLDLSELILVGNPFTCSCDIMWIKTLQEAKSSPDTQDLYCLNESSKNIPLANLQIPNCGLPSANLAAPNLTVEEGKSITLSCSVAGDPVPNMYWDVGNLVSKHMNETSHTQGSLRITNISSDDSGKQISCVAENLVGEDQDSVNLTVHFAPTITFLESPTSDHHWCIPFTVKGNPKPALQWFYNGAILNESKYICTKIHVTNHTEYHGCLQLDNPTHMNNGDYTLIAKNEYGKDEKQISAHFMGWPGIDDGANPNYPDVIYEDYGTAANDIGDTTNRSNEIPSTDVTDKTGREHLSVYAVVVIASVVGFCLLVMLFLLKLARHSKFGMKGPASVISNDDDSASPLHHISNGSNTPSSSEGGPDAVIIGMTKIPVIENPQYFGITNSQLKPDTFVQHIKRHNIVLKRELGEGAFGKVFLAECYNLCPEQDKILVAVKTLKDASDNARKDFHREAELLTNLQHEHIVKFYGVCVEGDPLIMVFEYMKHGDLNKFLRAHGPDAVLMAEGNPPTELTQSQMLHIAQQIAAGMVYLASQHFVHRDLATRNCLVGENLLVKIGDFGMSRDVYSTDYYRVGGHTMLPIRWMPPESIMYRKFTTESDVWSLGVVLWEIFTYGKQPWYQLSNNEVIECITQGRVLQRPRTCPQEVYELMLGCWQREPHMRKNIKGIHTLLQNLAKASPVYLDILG
# Sequence of DAPK1 (P53355 whole entry): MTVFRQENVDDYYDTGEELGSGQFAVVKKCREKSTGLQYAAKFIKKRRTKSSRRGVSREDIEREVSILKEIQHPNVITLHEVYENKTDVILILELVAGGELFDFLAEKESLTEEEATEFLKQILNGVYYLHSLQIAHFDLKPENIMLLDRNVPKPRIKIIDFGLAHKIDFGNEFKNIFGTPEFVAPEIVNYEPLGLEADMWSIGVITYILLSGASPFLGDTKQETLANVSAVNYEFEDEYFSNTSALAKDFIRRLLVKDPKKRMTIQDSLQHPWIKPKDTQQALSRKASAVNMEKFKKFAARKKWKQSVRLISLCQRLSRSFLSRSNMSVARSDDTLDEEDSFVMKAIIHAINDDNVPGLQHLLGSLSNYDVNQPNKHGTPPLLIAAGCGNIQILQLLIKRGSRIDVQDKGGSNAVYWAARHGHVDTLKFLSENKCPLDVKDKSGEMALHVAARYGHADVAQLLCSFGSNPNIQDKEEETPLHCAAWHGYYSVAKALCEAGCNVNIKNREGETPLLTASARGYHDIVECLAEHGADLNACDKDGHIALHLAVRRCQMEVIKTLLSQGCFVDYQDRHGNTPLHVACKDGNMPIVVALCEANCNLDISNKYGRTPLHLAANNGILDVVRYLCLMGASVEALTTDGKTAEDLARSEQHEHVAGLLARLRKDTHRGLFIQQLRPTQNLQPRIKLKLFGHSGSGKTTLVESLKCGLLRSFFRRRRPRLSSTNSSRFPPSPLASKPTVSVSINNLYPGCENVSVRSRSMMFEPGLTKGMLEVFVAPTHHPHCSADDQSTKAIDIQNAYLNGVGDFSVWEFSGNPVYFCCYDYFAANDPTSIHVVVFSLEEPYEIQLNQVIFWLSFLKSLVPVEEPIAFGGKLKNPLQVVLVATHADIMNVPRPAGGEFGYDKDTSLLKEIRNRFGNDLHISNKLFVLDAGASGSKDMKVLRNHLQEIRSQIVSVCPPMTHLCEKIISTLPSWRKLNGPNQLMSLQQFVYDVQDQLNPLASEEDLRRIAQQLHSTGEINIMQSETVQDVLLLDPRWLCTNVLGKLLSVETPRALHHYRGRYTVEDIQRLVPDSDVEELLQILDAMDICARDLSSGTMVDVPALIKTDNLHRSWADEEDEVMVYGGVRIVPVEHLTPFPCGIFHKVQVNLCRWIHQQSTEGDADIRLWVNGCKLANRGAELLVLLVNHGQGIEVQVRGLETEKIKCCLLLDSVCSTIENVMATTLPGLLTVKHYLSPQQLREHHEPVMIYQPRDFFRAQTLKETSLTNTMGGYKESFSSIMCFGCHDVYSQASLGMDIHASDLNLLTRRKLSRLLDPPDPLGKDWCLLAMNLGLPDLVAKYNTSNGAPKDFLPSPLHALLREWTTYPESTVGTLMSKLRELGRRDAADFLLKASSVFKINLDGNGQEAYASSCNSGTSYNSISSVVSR
# Sequence of PTK5 (P42685 whole entry): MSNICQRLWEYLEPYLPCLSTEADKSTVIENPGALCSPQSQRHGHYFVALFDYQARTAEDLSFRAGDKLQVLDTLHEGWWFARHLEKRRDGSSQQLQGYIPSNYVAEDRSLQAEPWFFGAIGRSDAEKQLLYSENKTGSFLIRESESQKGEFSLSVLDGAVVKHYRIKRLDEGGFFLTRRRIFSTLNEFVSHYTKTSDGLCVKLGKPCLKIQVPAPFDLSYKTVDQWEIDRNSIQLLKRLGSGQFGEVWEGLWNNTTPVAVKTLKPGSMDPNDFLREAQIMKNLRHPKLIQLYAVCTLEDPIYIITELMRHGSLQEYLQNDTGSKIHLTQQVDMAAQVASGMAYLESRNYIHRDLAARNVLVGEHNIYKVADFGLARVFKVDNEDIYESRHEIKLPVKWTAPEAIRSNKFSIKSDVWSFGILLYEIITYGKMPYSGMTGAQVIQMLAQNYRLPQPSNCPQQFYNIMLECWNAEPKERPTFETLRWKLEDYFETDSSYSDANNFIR
# Sequence of FYN (P06241 whole entry): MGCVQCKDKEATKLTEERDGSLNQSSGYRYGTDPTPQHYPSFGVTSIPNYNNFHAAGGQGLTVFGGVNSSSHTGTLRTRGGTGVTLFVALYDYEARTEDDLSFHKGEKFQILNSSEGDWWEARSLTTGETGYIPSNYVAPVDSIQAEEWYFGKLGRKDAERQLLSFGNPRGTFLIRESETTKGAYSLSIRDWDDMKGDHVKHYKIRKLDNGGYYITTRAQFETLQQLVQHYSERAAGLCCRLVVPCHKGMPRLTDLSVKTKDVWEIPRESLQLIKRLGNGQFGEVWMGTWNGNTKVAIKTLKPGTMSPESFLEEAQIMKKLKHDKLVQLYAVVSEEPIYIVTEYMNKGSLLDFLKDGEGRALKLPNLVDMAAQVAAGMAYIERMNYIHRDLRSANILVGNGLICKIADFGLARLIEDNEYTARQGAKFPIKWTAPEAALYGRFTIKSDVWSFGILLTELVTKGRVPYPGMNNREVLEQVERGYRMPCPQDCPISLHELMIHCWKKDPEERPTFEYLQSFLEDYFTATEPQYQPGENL
Structure (SMILES),inhibition at 0.1 µM (FYN) [%],inhibition at 1 µM (FYN) [%],inhibition at 0.1 µM (PKC-1) [%],inhibition at 1 µM (PKC-1) [%],inhibition at 0.1 µM (PRKD2; [1]) [%],inhibition at 0.1 µM (PRKD2; [2]) [%],inhibition at 1 µM (PRKD2; [1]) [%],inhibition at 1 µM (PRKD2; [2]) [%],inhibition at 0.1 µM (HIPK1) [%],inhibition at 1 µM (HIPK1) [%],inhibition at 0.1 µM (YES) [%],inhibition at 1 µM (YES) [%],inhibition at 0.1 µM (DAPK1) [%],inhibition at 1 µM (DAPK1) [%],inhibition at 0.1 µM (TRKB) [%],inhibition at 1 µM (TRKB) [%],inhibition at 0.1 µM (PTK5) [%],inhibition at 1 µM (PTK5) [%]
"COc1cc(-c2cc(-c3ccc(N4CCNCC4)cc3)cnc2C)cc(OC)c1OC [Compound 10, 1-(4-(6-methyl-5-(3,4,5-trimethoxyphenyl)pyridin-3-yl)phenyl)piperazine]",8,36,12,3,16,16,57,57,1,1,11,47,-1,-1,3,3,1,11
"COc1cc(-c2cc(-c3ccc(N4CCNCC4)cc3)cnc2N)cc(OC)c1OC [Compound 15, 5-(4-(piperazin-1-yl)phenyl)-3-(3,4,5-trimethoxyphenyl)pyridin-2-amine]",40,79,1,1,–,12,–,54,1,2,41,82,1,0,2,3,17,66
